Test results: publication PMC5556071, “ATR inhibition facilitates targeting of leukemia dependence on convergent nucleotide biosynthetic pathways” (Nature Communications, 2017)
Read-outs that look alike come from different tables or passages of the source.

How the values were obtained:
Assay type in all cases: cell-based, human
[1] = system: CEM cells; assay: Cell cycle analysis of asynchronous cells by flow cytometry (S-phase population, S-phase arrest); conditions: CEM, 24 h
Procedure: Cell cycle histograms. Cells were plated at a density of 0.5 x 10^6 cells/mL in respective media or drug treated media. Following 24 h incubation, cells were harvested and washed twice with PBS twice before staining with 0.5 ml of propidium iodide (Calbiochem, #P3566, 1 µg/mL) solution containing Ribonuclease A and 0.3% Triton-X 100. The samples were protected from light before acquisition by flow cytometry.
Cell cycle kinetics and cell cycle progression by intracellular detection of DNA-incorporated 5-ethynyl-2-deoxyuridine (EdU). CEM T-ALL cells were plated at a density of 0.5 x 10^6 cells/mL. Cells were pulsed with 10 µM EdU (Invitrogen) for 1 h, washed twice with PBS, and released in fresh media containing 5 µM deoxyribonucleosides, with and without drugs. Cells were collected at different time points following release in fresh media, and then fixed with 4% paraformaldehyde and permeabilized using saponin perm/wash reagent (Invitrogen). Cells were then stained with azide-Alexa Fluor 647 by Click reaction according to manufacturer’s protocol (Invitrogen; Click-iT EdU Flow cytometry kit, #C10634). […]

[2] = system: CEM cells; assay: Proliferation assay (CellTiter-Glo, 72 h)
Procedure: Cells were plated in 384-well plates (1000 cells/well for suspension cell lines and 500 cells/well for adherent cell lines in 30 µl volume). Drugs were serially diluted to the desired concentrations and an equivalent volume of DMSO was added to vehicle control. Ten microliter of the 4× diluted drugs were added to each well. Following 72 h incubation, ATP content was measured using CellTiter-Glo reagent according to manufacturer’s instructions (Promega, CellTiter-Glo Luminescent Cell Viability Assay), and analyzed by SpectraMax luminometer (Molecular Devices). IC50 values, concentrations required to inhibit proliferation by 50% compared to DMSO treated cells, were calculated using Prism 6.0 h (Graphpad Software).

[3] = system: Jurkat cells; assay: Cell cycle histograms (propidium iodide flow cytometry); conditions: dCKi 1 µM, 24 h
Procedure: Cell cycle histograms. Cells were plated at a density of 0.5 x 10^6 cells/mL in respective media or drug treated
media. Following 24 h incubation, cells were harvested and washed twice with PBS twice before staining with
0.5 ml of propidium iodide (Calbiochem, #P3566, 1 µg/mL) solution containing Ribonuclease A and 0.3%
Triton-X 100. The samples were protected from light before acquisition by flow cytometry. […]

[4] = Suppl. Fig. 5e, BCX-1777 100 nM

Row | Compound | fold higher concentration than 3-AP required to induce S-phase arrest [1] | IC50 [2] | other results
1 | Cc1cn([C@H]2C[C@H](O)[C@@H](CO)O2)c(=O)[nH]c1=O [dT, thymidine] | 60–100 fold | – | IC50 ([2]; Homo sapiens, CCRF-CEM): 159 µM
2 | O=c1[nH]cnc2c([C@@H]3N[C@H](CO)[C@@H](O)[C@H]3O)c[nH]c12 [BCX-1777, forodesine] | – | – | cells in G2/M [3, 4]: 1.4%; cells in S phase [3, 4]: 40%
3 | Cc1occc(=O)c1[O-].Cc1occc(=O)c1[O-].Cc1occc(=O)c1[O-].[Ga+3] [GaM, gallium maltolate] | 60–100 fold | 49.8 µM | –
4 | NC(=O)NO [HU, hydroxyurea] | 60–100 fold | 74.5 µM | –
5 | OC[C@H]1O[C@@H](n2cnc3c2NC=NC[C@H]3O)C[C@@H]1O [dCF, Pentostatin] | – | – | cells in G2/M ([3]; Suppl. Fig. 4e, dCF 10 µM): 6%; cells in S phase ([3]; Suppl. Fig. 4e, dCF 10 µM): 11%
